From ChEMBL document CHEMBL4368888, “Design, synthesis and biological evaluation of tryptamine salicylic acid derivatives as potential antitumor agents” (Medchemcomm, 2019) come the findings set out here.

Type in all cases: functional, cell-based
Test [1] relates to HepG2. Briefly: Antiproliferative activity against human HepG2 cells after 48 hrs by MTT assay. Particulars: HepG2, 48 h. (In general: Tetrazolium assays rely on reduction of a dye to a coloured formazan, in cell work by metabolically active cells.)
Test [2] concerns A549. As to the kind of experiment: Antiproliferative activity against human A549 cells after 48 hrs by MTT assay. The settings on record: A549, 48 h.
The subject of test [3] is MCF7. Briefly: Antiproliferative activity against human MCF7 cells after 48 hrs by MTT assay. Particulars: MCF7, 48 h.
The subject of test [4] is HeLa. Briefly: Antiproliferative activity against human HeLa cells after 48 hrs by MTT assay.
Test [5] deals with MGC-803. As to the kind of experiment: Antiproliferative activity against human MGC803 cells after 48 hrs by MTT assay. The settings on record: MGC-803, 48 h.

Where only a bound is given, the exact number is not on record here.

The IC50 is the concentration at which inhibition is half-maximal.

For the compound `O=C(NCCc1c[nH]c2ccc(Br)cc12)c1cc(Br)ccc1O`, the IC50 in test [1] is greater than 100 µM; in test [2] it was 62 µM; in test [3], greater than 100 µM; in test [4] it was greater than 100 µM; in test [5], 80 µM.
Take `O=C(NCCc1c[nH]c2ccccc12)c1ccccc1O`: the concentration for half-maximal inhibition (IC50) in test [1], in test [2], in test [3], in test [4] and in test [5] was greater than 100 µM each time.
Regarding `Cc1cccc(C(=O)NCCc2c[nH]c3ccc(F)cc23)c1O`, the concentration for half-maximal inhibition (IC50) in test [1] was greater than 100 µM; in test [2] it was 67 µM; in test [3] it was greater than 100 µM; in test [4], greater than 100 µM; in test [5], 52 µM.
On to `Cc1ccc2[nH]cc(CCNC(=O)c3ccccc3O)c2c1`, for which the IC50 in test [1] was greater than 100 µM; in test [2] it was greater than 100 µM; in test [3], 93 µM; in test [4], greater than 100 µM; in test [5], 45 µM.
As for `COc1ccc2[nH]cc(CCNC(=O)c3cccc(C)c3O)c2c1`, the half-maximal inhibitory concentration (IC50) is 85 µM in test [1]; greater than 100 µM in test [2]; 97 µM in test [3]; 42 µM in test [4]; 43 µM in test [5].
With `Cc1cccc(C(=O)NCCc2c[nH]c3ccc(Cl)cc23)c1O`, the IC50 in test [1] came to 62 µM; in test [2] it was 48 µM; in test [3], 70 µM; in test [4], 56 µM; in test [5] it was 56 µM.
Turning to `Cc1ccc(C(=O)NCCc2c[nH]c3ccc(Cl)cc23)c(O)c1`, the IC50 in test [1] was greater than 100 µM; in test [2] it was 63 µM; in test [3], 73 µM; in test [4], 64 µM; in test [5], 37 µM.
Turning to `O=C(NCCc1c[nH]c2ccc(Cl)cc12)c1cc(Br)ccc1O`, the half-inhibitory concentration (IC50) in test [1] is greater than 100 µM; in test [2], 63 µM; in test [3] it was 75 µM; in test [4] it was 85 µM; in test [5], 35 µM.
As to `O=C(NCCc1c[nH]c2ccccc12)c1cc(Cl)ccc1O`, the IC50 in test [1] is greater than 100 µM; in test [2] it was greater than 100 µM; in test [3], greater than 100 µM; in test [4], greater than 100 µM; in test [5], 74 µM.
Take `Cc1ccc2[nH]cc(CCNC(=O)c3ccc(Cl)cc3O)c2c1`: the IC50 was 98 µM in test [1]; 68 µM in test [2]; greater than 100 µM in test [3]; 93 µM in test [4]; 47 µM in test [5].
For `Cc1ccc(C(=O)NCCc2c[nH]c3ccc(C)cc23)c(O)c1`, the IC50 in test [1] is greater than 100 µM; in test [2] it was 75 µM; in test [3], 60 µM; in test [4], greater than 100 µM; in test [5] it was 38 µM.
Turning to `Cc1cccc(C(=O)NCCc2c[nH]c3ccccc23)c1O`, the IC50 is greater than 100 µM in test [1]; greater than 100 µM in test [2]; greater than 100 µM in test [3]; 82 µM in test [4]; 63 µM in test [5].
As to `COc1ccc2[nH]cc(CCNC(=O)c3ccc(Cl)cc3O)c2c1`, the IC50 is greater than 100 µM in test [1]; greater than 100 µM in test [2]; greater than 100 µM in test [3]; 71 µM in test [4]; 56 µM in test [5].
Consider `COc1ccc2[nH]cc(CCNC(=O)c3cc(Br)ccc3O)c2c1`, for which the IC50 is greater than 100 µM in test [1]; greater than 100 µM in test [2]; greater than 100 µM in test [3]; 74 µM in test [4]; 62 µM in test [5].
Turning to `COc1ccc2[nH]cc(CCNC(=O)c3ccccc3O)c2c1`, the IC50 in test [1] is greater than 100 µM; in test [2], greater than 100 µM; in test [3] it was greater than 100 µM; in test [4], 82 µM; in test [5], 59 µM.
Regarding `Cc1ccc(C(=O)NCCc2c[nH]c3ccccc23)c(O)c1`, the IC50 in test [1] was greater than 100 µM; in test [2] it was greater than 100 µM; in test [3], greater than 100 µM; in test [4], greater than 100 µM; in test [5], 80 µM.
With `O=C(NCCc1c[nH]c2ccc(Br)cc12)c1ccc(Cl)cc1O`, the IC50 in test [1] is 92 µM; in test [2], 63 µM; in test [3], 98 µM; in test [4], 71 µM; in test [5] it was 43 µM.
`O=C(NCCc1c[nH]c2ccc(Cl)cc12)c1ccccc1O`: the IC50 was greater than 100 µM in test [1]; 60 µM in test [2]; 75 µM in test [3]; 81 µM in test [4]; 35 µM in test [5].
With `Cc1ccc2[nH]cc(CCNC(=O)c3cccc(C)c3O)c2c1`, the IC50 in test [1] is 64 µM; in test [2], 50 µM; in test [3], 62 µM; in test [4], 61 µM; in test [5], 38 µM.
With `Cc1ccc2[nH]cc(CCNC(=O)c3cc(Br)ccc3O)c2c1`, the IC50 was 93 µM in test [1]; 80 µM in test [2]; 89 µM in test [3]; greater than 100 µM in test [4]; 61 µM in test [5].
Taken in the same sequence, the figures for `O=C(NCCc1c[nH]c2ccc(F)cc12)c1ccccc1O` were greater than 100 µM, greater than 100 µM, greater than 100 µM, greater than 100 µM and 63 µM.
On to `O=C(NCCc1c[nH]c2ccc(F)cc12)c1ccc(Cl)cc1O`, for which the IC50 in test [1] was greater than 100 µM; in test [2], greater than 100 µM; in test [3] it was greater than 100 µM; in test [4] it was greater than 100 µM; in test [5], 62 µM.
Regarding `O=C(NCCc1c[nH]c2ccc(Cl)cc12)c1cc(Cl)ccc1O`, the IC50 in test [1] is 89 µM; in test [2] it was 62 µM; in test [3], 80 µM; in test [4], 80 µM; in test [5], 31 µM.
On to `O=c1[nH]cc(F)c(=O)[nH]1` [FLUOROURACIL], for which the IC50 in test [1] is 68 µM; in test [2], greater than 100 µM; in test [4] it was 50 µM; in test [5] it was 58 µM.
As to `O=C(NCCc1c[nH]c2ccc(Br)cc12)c1ccccc1O`, the IC50 in test [1] is greater than 100 µM; in test [2], 59 µM; in test [3] it was 80 µM; in test [4], 79 µM; in test [5], 37 µM.
On to `O=C(NCCc1c[nH]c2ccc(Br)cc12)c1cc(Cl)ccc1O`, for which the IC50 in test [1] stood at 87 µM; in test [2], 63 µM; in test [3], 73 µM; in test [4], 80 µM; in test [5] it was 63 µM.
`Cc1ccc2[nH]cc(CCNC(=O)c3cc(Cl)ccc3O)c2c1`: the IC50 in test [1] is greater than 100 µM; in test [2] it was 89 µM; in test [3], 79 µM; in test [4], greater than 100 µM; in test [5], 42 µM.
For the compound `O=C(NCCc1c[nH]c2ccccc12)c1ccc(Cl)cc1O`, the IC50 in test [1] was greater than 100 µM; in test [2] it was greater than 100 µM; in test [3], greater than 100 µM; in test [4] it was greater than 100 µM; in test [5], 80 µM.
As to `COc1ccc2[nH]cc(CCNC(=O)c3cc(Cl)ccc3O)c2c1`, the IC50 in test [1] is 75 µM; in test [2], greater than 100 µM; in test [3], greater than 100 µM; in test [4], greater than 100 µM; in test [5] it was 55 µM.
Regarding `Cc1ccc(C(=O)NCCc2c[nH]c3ccc(Br)cc23)c(O)c1`, the concentration for half-maximal inhibition (IC50) in test [1] is 80 µM; in test [2], 61 µM; in test [3], 80 µM; in test [4], 61 µM; in test [5], 48 µM.
